One may read the IC50 as the point on the concentration scale where inhibition reaches its midpoint. What is called GI50 is the concentration giving 50% growth inhibition. By TGI is commonly meant the concentration giving total growth inhibition.

Data set [1] deals with MCF7. Description: Antiproliferative activity against human MCF7 cells assessed as inhibition of cell growth by MTT assay. Type of data set: functional, cell-based.
A further data set deals with HepG2. Description: Antiproliferative activity against human HepG2 cells assessed as cell growth inhibition by MTT assay. Type of data set: functional, cell-based. (Tetrazolium assays rely on reduction of a dye to a coloured formazan, in cell work by metabolically active cells.)
Another data set concerns HCT-116. Description: Antiproliferative activity against human HCT-116 cells assessed as inhibition of cell growth by MTT assay. The data set is classed as functional, cell-based.
Data set [2] addresses Epidermal growth factor receptor (Homo sapiens, UniProt P00533). Description: Inhibition of EGFR (unknown origin).
In data set [3] the target is Vascular endothelial growth factor receptor 2 (Homo sapiens, UniProt P35968). Put plainly: Inhibition of VEGFR-2 (unknown origin).
Data set [4] in a line: Antiproliferative activity against human DiFi cells assessed as inhibition of cell growth by MTS assay.
The test system of data set [5] is HL-60. Put plainly: Antiproliferative activity against human HL-60 cells assessed as inhibition of cell growth under normoxia condition incubated for 72 hrs by MTT assay. Conditions: HL-60, 72 h. Type of data set: functional, cell-based.
Data set [6] has as its system Bel-7402. Description: Antiproliferative activity against human Bel-7402 cells assessed as inhibition of cell growth under normoxia condition incubated for 72 hrs by MTT assay. Type of data set: functional, cell-based. Conditions: Bel-7402, 72 h.
For data set [7], the system named is ECa-109 cell line. Description: Antiproliferative activity against human Eca-109 cells assessed as inhibition of cell growth under normoxia condition incubated for 72 hrs by MTT assay. The data set is classed as functional, cell-based. Conditions: ECa-109, 72 h.
Data set [8] deals with PC-3. Description: Antiproliferative activity against human PC-3 cells assessed as inhibition of cell growth under normoxia condition incubated for 72 hrs by MTT assay. The data set is classed as functional, cell-based. The settings on record: PC-3, 72 h.
Data set [9] has as its system MCF7. Put plainly: Antiproliferative activity against human MCF7 cells assessed as inhibition of cell growth under normoxia condition incubated for 72 hrs by MTT assay. Type of data set: functional, cell-based. The settings on record: MCF7, 72 h.
Data set [10] has as its system HL-60. Description: Antiproliferative activity against human HL-60 cells assessed as inhibition of cell growth under hypoxia condition incubated for 72 hrs by MTT assay. Conditions: HL-60, 72 h. The data set is classed as functional, cell-based.
Data set [11] concerns Bel-7402. Description: Antiproliferative activity against human Bel-7402 cells assessed as inhibition of cell growth under hypoxia condition incubated for 72 hrs by MTT assay. Conditions: Bel-7402, 72 h. Type of data set: functional, cell-based.
Data set [12] has as its system ECa-109 cell line. Description: Antiproliferative activity against human Eca-109 cells assessed as inhibition of cell growth under hypoxia condition incubated for 72 hrs by MTT assay. Type of data set: functional, cell-based. Conditions: ECa-109, 72 h.
Data set [13] relates to MCF7. Description: Antiproliferative activity against human MCF7 cells assessed as inhibition of cell growth under hypoxia condition incubated for 72 hrs by MTT assay. The data set is classed as functional, cell-based. The settings on record: MCF7, 72 h.
In data set [14] the test system is PC-3. Description: Antiproliferative activity against human PC-3 cells assessed as inhibition of cell growth under hypoxia condition incubated for 72 hrs by MTT assay. Type of data set: functional, cell-based. Conditions: PC-3, 72 h.
The nature of data set [15]: Ratio of IC50 for antiproliferative activity against human HL-60 cells assessed as inhibition of cell growth under normoxia condition to IC50 for antiproliferative activity against human HL-60 cells assessed as inhibition of cell growth under hypoxia condition. The data set is classed as functional.
Data set [16] can be described thus: Ratio of IC50 for antiproliferative activity against human Bel-7402 cells assessed as inhibition of cell growth under normoxia condition to IC50 for antiproliferative activity against human Bel-7402 cells assessed as inhibition of cell growth under hypoxia condition. Type of data set: functional.
A short description of data set [17]: Ratio of IC50 for antiproliferative activity against human Eca-109 cells assessed as inhibition of cell growth under normoxia condition to IC50 for antiproliferative activity against human Eca-109 cells assessed as inhibition of cell growth under hypoxia condition. The data set is classed as functional.
The nature of data set [18]: Ratio of IC50 for antiproliferative activity against human MCF7 cells assessed as inhibition of cell growth under normoxia condition to IC50 for antiproliferative activity against human MCF7 cells assessed as inhibition of cell growth under hypoxia condition. Type of data set: functional.
Data set [19] can be described thus: Ratio of IC50 for antiproliferative activity against human PC-3 cells assessed as inhibition of cell growth under normoxia condition to IC50 for antiproliferative activity against human PC-3 cells assessed as inhibition of cell growth under hypoxia condition. The data set is classed as functional.
Data set [20] has as its system Panel NCI-60 (60 carcinoma cell lines). Put plainly: Antiproliferative activity against human Panel NCI-60 (60 carcinoma cell lines) assessed as cell growth inhibition incubated for 48 hrs by SRB assay. Type of data set: functional. A general note: The SRB assay estimates cell density from bound dye.
Data set [21] has as its target Cyclin-dependent kinase 2/cyclin E1 (Homo sapiens, UniProt P24941). Description: Inhibition of CDK2/cyclin E1 (unknown origin) expressed in Sf9 cells.
The nature of data set [22]: Cytotoxicity against human CEM cells assessed as inhibition of cell growth incubated for 72 hrs by MTT assay. The settings on record: CEM (CCRF-CEM) cells, pooled result: one value given for 5 cell lines, strains, targets or settings. The data set is classed as toxicity, cell-based.
In data set [23] the test system is MCF7. Description: Cytotoxicity against human MCF7 cells assessed as inhibition of cell growth incubated for 72 hrs by MTT assay. Conditions: MCF7, 72 h. The data set is classed as functional, cell-based.
Another data set relates to KB. Put plainly: Antiproliferative activity against human KB cells assessed as inhibition of cell growth under hypoxia condition. Type of data set: functional, cell-based.
Data set [24] relates to K562. Description: Induction of apoptosis in human K562 cells assessed as increase in apoptotic cells under normoxia condition relative to control. Type of data set: functional.
The subject of data set [25] is K562. Description: Induction of apoptosis in human K562 cells assessed as increase in apoptotic cells under hypoxia condition relative to control. The data set is classed as functional.
The test system of data set [26] is MDA-MB-231. Description: Antiproliferative activity against human MDA-MB-231 cells assessed as inhibition of cell growth by MTT assay. Type of data set: functional, cell-based.
Data set [27] concerns MCF7. Description: Antiproliferative activity against human MCF7 cells assessed as inhibition of cell growth by [3H]thymidine incorporation assay. The data set is classed as functional, cell-based. For orientation: Uptake of a labelled nucleoside into DNA is a usual measure of proliferation.
Data set [28] concerns MDA-MB-231. Description: Antiproliferative activity against human MDA-MB-231 cells assessed as inhibition of cell growth by [3H]thymidine incorporation assay. The data set is classed as functional, cell-based.
Data set [29] has as its target T1, Interleukin-1 receptor-associated kinase 4 (Homo sapiens, UniProt Q9NWZ3).
T1 sequence (Q9NWZ3 whole entry): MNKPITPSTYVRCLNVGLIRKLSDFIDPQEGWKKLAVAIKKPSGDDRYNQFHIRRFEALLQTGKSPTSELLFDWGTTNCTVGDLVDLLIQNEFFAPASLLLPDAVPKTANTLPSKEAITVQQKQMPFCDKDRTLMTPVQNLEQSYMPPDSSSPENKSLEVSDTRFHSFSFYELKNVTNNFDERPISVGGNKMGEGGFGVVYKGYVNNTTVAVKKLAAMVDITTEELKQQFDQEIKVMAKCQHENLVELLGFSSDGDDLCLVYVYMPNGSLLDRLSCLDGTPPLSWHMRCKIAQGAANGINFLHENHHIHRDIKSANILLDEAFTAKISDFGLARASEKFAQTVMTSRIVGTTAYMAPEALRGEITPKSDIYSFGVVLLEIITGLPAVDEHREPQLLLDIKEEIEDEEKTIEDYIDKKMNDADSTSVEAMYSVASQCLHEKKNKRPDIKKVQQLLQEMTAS
Put plainly: Inhibition of human GST-tagged IRAK4 incubated for 30 mins in presence of ATP by fluorescent polarization assay.

SMILES strings stand for the structures. Converted amounts (≈) assume the structure as drawn. Where only a bound is given, the exact number is not on record here.

Vascular endothelial growth factor receptor 2, sequence (P35968 whole entry): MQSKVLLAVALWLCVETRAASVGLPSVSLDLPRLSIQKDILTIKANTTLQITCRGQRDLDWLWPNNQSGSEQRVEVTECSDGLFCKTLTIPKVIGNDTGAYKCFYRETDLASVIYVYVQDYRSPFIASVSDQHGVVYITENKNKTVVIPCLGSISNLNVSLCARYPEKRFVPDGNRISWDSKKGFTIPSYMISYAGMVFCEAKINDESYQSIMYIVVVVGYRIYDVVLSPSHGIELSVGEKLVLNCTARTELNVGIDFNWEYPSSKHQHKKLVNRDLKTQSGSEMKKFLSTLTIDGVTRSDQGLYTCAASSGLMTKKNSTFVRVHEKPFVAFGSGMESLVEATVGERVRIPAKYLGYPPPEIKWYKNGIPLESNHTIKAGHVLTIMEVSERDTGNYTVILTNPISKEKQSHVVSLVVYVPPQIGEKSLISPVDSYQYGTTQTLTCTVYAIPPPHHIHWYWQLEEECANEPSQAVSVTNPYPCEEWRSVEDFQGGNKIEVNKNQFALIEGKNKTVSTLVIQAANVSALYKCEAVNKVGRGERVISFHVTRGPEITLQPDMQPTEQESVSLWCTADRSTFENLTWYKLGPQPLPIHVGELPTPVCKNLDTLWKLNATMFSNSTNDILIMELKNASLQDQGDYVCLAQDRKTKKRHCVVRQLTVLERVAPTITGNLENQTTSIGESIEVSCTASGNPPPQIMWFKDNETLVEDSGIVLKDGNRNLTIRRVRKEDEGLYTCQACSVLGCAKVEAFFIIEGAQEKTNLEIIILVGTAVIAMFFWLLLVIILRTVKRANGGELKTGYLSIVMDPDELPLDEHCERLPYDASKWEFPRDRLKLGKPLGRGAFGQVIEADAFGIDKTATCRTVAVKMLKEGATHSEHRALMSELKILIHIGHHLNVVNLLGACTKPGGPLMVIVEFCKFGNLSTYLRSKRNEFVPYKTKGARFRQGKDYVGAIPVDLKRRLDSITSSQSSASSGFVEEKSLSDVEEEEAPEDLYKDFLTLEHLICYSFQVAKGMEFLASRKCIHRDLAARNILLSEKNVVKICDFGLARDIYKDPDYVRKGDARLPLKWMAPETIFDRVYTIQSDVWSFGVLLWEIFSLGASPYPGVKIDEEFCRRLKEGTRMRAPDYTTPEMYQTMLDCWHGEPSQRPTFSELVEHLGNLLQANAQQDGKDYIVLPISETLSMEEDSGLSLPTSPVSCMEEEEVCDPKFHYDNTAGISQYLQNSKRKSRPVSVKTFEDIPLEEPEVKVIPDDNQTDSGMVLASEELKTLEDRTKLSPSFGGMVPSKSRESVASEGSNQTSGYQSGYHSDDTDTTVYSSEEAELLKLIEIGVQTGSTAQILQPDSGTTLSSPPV
Epidermal growth factor receptor, sequence (P00533 whole entry): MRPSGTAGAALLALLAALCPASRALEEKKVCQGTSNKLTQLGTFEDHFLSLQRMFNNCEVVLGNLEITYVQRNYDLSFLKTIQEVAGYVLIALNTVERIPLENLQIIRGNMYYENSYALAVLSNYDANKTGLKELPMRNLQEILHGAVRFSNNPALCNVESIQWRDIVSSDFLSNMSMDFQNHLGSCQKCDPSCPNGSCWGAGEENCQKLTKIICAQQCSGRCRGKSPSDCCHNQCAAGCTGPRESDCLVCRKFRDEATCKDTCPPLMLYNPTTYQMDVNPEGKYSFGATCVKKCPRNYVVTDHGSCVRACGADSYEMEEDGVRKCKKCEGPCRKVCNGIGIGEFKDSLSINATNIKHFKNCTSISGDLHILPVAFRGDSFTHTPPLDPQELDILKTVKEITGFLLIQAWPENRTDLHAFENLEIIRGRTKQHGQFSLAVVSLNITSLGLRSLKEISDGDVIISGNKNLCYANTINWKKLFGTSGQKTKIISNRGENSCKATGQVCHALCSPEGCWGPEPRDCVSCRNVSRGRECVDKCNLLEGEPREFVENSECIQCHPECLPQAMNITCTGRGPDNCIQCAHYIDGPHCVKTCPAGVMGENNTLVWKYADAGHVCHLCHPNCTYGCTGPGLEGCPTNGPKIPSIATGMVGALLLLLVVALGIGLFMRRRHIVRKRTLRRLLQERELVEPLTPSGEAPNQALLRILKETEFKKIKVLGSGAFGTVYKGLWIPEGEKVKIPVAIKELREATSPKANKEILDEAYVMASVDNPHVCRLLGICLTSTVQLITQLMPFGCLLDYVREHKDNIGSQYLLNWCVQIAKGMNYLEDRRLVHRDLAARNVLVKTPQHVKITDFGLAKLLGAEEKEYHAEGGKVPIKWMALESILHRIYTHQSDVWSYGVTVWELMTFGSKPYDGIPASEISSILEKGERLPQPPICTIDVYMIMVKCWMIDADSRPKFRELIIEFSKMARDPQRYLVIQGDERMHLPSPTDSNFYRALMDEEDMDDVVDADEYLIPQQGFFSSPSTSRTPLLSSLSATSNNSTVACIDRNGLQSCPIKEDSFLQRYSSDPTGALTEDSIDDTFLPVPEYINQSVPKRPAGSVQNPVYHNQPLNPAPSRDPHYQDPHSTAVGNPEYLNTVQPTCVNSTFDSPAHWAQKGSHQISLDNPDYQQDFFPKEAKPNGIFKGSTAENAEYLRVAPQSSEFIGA

For the molecule `O=c1[nH]n2c(=O)c(/C=C/c3cccs3)nnc2s1`, the results for the IC50 with MCF7 [1], with HepG2 and with HCT-116 were 8.34 µg/mL, 8.34 µg/mL (≈ 30 µM) and 8.34 µg/mL (≈ 30 µM), respectively.

Consider `Cc1ccc2c(Nc3ccc(F)c(Cl)c3)ncnn12`, for which the IC50 was above 2000 nM in data set [2], 3250 nM in [3] and 1600 nM in data set [4].

On to `[O-][n+]1nc(NCc2ccccc2)[n+]([O-])c2ccc(Cl)cc21`, for which the IC50 in the data set on HL-60 [5], in the data set on Bel-7402 [6], with ECa-109 cell line [7], in the data set on PC-3 [8], with MCF7 [9] and in the data set with HL-60 [10] was 200 nM in each case. The half-inhibitory concentration (IC50) in the data set with Bel-7402 [11], with ECa-109 cell line [12], with MCF7 [13] and in the data set on PC-3 [14] was 200 nM in each case. Moreover, the “Ratio IC50” value in data set [15] turned out to be 1; in data set [16] it was 1.8; in [17], 3.2; in data set [18] it was 1.1; in [19], 1.4.

`O=C1CNN(CSc2nc3ccc(I)cc3c(=O)n2Cc2ccccc2)C=N1`: in data set [20], the GI50 was found to be 22600 nM and the TGI turned out to be 61400 nM. Besides, the CC50 in data set [20] (read-out: LC50 (the source's name)) worked out at 89300 nM.

In the case of `Fc1ccc(Nc2ncnn3cccc23)cc1Cl`, the figures for the half-inhibitory concentration (IC50) in data set [2], in data set [3] and in [4] were above 10000 nM, 118 nM and 1600 nM, respectively.

On to `Oc1cccc(-n2nc(-c3cc(O)c(O)c(O)c3)c3nc(-c4ccc(Cl)cc4)nnc32)c1`, for which the IC50 was 17300 nM in data set [21] and 1900 nM in the data set on MCF7 [23]. Moreover, the IC50 at 72 h in data set [22] was 1900 nM.

In the case of `COc1ccc(COCNc2n[n+]([O-])c3ccccc3[n+]2[O-])cc1`, the IC50 with KB amounted to 3320 nM. In addition, the Activity in the data set on K562 [24] stood at 14.13%; in the data set on K562 [25], 33.07%.

For the molecule `CCNc1n[n+]([O-])c2cc([N+](=O)[O-])ccc2[n+]1[O-]`, the IC50 with HL-60 [5], in the data set with Bel-7402 [6], in the data set with ECa-109 cell line [7], with PC-3 [8], in the data set on MCF7 [9] and in the data set on HL-60 [10] was 200 nM in each case. Besides, the IC50 in the data set on Bel-7402 [11], in the data set on ECa-109 cell line [12], in the data set with MCF7 [13] and in the data set on PC-3 [14] was 200 nM throughout. For the same molecule, the “Ratio IC50” value in data set [15] was found to be 1.4; in data set [16], 1.6; in [17], 2.2; in [19], 1.9.

Regarding `c1ccc(-c2cc(SN3CCOCC3)nnc2-c2ccccc2)cc1`, the IC50 in the data set with MCF7 [1] turned out to be 91000 nM; in the data set on MDA-MB-231 [26] it was 88000 nM; in the data set with MCF7 [27], 87000 nM; in the data set on MDA-MB-231 [28] it was 84000 nM.

Regarding `O=C(O)CCc1nn2c(=O)c(/C=C/c3cccs3)nnc2s1`, the IC50 in the data set with MCF7 [1] was 11.7 µg/mL; in the data set with HepG2, 12.1 µg/mL (≈ 36.3 µM); in the data set on HCT-116 it was 8.34 µg/mL (≈ 24.9 µM).

Take `NC(=O)c1nn(CCO)cc1NC(=O)c1ccc2cnc(NC3CCCCC3N)nn12` (stereo not drawn): the IC50 in [29] was determined as 3 nM.

In the case of `O=C(O)c1ccccc1-c1nn2c(=O)c(/C=C/c3cccs3)nnc2s1`, the figures for the IC50 in the data set with MCF7 [1], in the data set with HepG2 and in the data set with HCT-116 were 8.34 µg/mL, 8.34 µg/mL (≈ 21.8 µM) and 8.34 µg/mL (≈ 21.8 µM), respectively.

The values are drawn from ChEMBL document CHEMBL5260813, “An overview on the recent developments of 1,2,4-triazine derivatives as anticancer compounds” (Eur J Med Chem, 2017).
